Experimental data as given in ChEMBL document CHEMBL5537120 (Eur J Med Chem, 2024).
Activity calls are given as the source filed them. No cut-off for these calls is given here. Where a SMILES comes first, the peptide text is derived from it. Bridges are numbered along the chain shown (N, C = ends).

Tests used:
[1] = biological target: Neuropilin-1 (Homo sapiens, UniProt O14786); assay: Binding affinity to NRP1 (unknown origin) by MST analysis
[2] = system: SARS-CoV-2; assay: Antiviral activity against HIV-1 pseudotyped SARS-CoV-2 Omicron BA.2.75 infected in HEK293T cells expressing ACE2/NRP1 assessed as reduction in viral replication at 1.6 uM pretreated with cells for 1 hr followed by viral infection and measured after 2 days by firefly luciferase reporter gene assay; assay type: functional, organism-based; conditions: Severe acute respiratory syndrome coronavirus 2, time 49.0 hrs
[3] = system: SARS-CoV-2; assay: microbe, parasite or virus in culture; conditions: Severe acute respiratory syndrome coronavirus 2, Omicron BA.2.75, HEK-293T, 49 h, read-out: INH
[4] = system: SARS-CoV-2; assay: microbe, parasite or virus in culture; conditions: Severe acute respiratory syndrome coronavirus 2, Omicron BA.2.75, HEK-293T
Description: Antiviral activity against HIV-1 pseudotyped SARS-CoV-2 Omicron BA.2.75 infected in HEK293T cells expressing ACE2/NRP1 assessed as reduction in infection rate pretreated with cells for 1 hr followed by viral infection and measured after 2 days by firefly luciferase reporter gene assay

[5] = system: SARS-CoV-2; assay: microbe, parasite or virus in culture; conditions: Severe acute respiratory syndrome coronavirus 2, Alpha, HEK-293T
Description: Antiviral activity against HIV-1 pseudotyped SARS-CoV-2 Alpha infected in HEK293T cells expressing ACE2/NRP1 assessed as reduction in infection rate pretreated with cells for 1 hr followed by viral infection and measured after 2 days by firefly luciferase reporter gene assay

[6] = system: SARS-CoV-2; assay: microbe, parasite or virus in culture; conditions: Severe acute respiratory syndrome coronavirus 2, Beta, HEK-293T
Description: Antiviral activity against HIV-1 pseudotyped SARS-CoV-2 Beta infected in HEK293T cells expressing ACE2/NRP1 assessed as reduction in infection rate pretreated with cells for 1 hr followed by viral infection and measured after 2 days by firefly luciferase reporter gene assay

[7] = system: SARS-CoV-2; assay: microbe, parasite or virus in culture; conditions: Severe acute respiratory syndrome coronavirus 2, Delta, HEK-293T
Description: Antiviral activity against HIV-1 pseudotyped SARS-CoV-2 Delta infected in HEK293T cells expressing ACE2/NRP1 assessed as reduction in infection rate pretreated with cells for 1 hr followed by viral infection and measured after 2 days by firefly luciferase reporter gene assay

[8] = biological target: Angiotensin-converting enzyme 2 (Homo sapiens, UniProt Q9BYF1); assay: Binding affinity to ACE2 (unknown origin) by MST analysis
Angiotensin-converting enzyme 2, sequence (Q9BYF1 whole entry): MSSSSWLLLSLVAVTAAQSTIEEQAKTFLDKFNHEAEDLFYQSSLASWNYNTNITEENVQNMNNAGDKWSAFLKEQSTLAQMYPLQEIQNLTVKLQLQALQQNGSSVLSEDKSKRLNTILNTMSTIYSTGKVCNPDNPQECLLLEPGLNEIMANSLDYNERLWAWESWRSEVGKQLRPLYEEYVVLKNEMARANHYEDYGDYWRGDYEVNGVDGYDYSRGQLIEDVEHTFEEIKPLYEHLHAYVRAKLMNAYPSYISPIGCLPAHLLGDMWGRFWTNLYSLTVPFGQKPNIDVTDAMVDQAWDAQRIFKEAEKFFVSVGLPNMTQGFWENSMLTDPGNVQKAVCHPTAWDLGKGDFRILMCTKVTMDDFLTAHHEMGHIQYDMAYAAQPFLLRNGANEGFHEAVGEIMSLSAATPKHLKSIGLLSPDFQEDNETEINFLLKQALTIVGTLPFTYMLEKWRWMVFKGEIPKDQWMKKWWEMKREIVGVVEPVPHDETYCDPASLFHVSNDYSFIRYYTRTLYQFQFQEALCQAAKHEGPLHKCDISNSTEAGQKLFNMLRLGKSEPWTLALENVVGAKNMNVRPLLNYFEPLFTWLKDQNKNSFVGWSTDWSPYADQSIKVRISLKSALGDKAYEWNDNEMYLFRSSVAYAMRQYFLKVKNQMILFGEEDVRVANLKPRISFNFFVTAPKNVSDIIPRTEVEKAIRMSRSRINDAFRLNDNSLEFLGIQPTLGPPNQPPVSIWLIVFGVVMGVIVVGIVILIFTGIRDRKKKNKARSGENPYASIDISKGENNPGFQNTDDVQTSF

Neuropilin-1, sequence (O14786 whole entry): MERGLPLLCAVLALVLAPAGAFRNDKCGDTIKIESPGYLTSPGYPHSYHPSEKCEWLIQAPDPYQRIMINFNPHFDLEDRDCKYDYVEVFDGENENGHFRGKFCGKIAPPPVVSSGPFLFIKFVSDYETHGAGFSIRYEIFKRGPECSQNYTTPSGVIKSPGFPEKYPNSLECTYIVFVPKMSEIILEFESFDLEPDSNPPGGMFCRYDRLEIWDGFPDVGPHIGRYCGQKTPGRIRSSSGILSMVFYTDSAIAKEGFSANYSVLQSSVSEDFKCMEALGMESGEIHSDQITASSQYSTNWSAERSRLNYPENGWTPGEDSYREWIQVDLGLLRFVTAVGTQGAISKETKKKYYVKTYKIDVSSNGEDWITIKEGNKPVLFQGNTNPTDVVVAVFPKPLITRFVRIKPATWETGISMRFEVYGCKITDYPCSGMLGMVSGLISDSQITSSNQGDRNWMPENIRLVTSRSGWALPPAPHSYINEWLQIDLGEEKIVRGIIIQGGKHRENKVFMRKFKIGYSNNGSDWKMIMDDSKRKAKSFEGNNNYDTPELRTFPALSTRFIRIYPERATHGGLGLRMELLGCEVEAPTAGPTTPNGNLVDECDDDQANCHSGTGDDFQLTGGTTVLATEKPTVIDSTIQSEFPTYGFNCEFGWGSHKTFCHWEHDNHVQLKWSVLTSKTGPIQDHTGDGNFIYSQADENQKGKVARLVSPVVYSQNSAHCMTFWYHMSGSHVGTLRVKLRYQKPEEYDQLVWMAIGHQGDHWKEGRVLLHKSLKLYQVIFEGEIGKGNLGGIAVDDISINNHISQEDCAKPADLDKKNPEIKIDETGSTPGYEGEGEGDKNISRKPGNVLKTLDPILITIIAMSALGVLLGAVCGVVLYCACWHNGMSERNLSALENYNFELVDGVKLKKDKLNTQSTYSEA

CC(C)C[C@@H]1NC(=O)[C@@H]2CCCN2C(=O)[C@H](CO)NC(=O)[C@@H](NC(=O)[C@H](Cc2cnc[nH]2)NC(=O)[C@H](CO)NC(=O)[C@H](Cc2ccccc2)NC(=O)[C@H](CC(=O)O)NC(=O)CN)CSSC[C@@H](C(=O)N[C@H](C(=O)N[C@@H](Cc2ccc(O)cc2)C(=O)N2CCC[C@H]2C(=O)N[C@@H](CC(=O)O)C(=O)N2CCC[C@H]2C(=O)N[C@@H](CCC(=O)O)C(=O)NCC(=O)NCC(=O)NCC(=O)N[C@@H](CCCCN)C(=O)N2CCC[C@H]2C(=O)N[C@@H](C)C(=O)N[C@@H](CCCNC(=N)N)C(=O)N2CCC[C@H]2C(=O)N[C@@H](C)C(=O)N[C@@H](CCCNC(=N)N)C(=O)O)[C@@H](C)O)NC(=O)[C@H](CCCCN)NC(=O)[C@H](Cc2ccccc2)NC(=O)[C@H](Cc2c[nH]c3ccccc23)NC(=O)[C@@H]2CCCN2C(=O)[C@H](Cc2ccccc2)NC(=O)[C@H](Cc2ccc(O)cc2)NC(=O)[C@H](CCCNC(=N)N)NC1=O (H-GDFSHCSPLRYFPWFKCTYPDPEGGGKPARPAR-OH; disulfide 6-17)
Kd [1]: 13.4 nM | Activity [2]: Active | inhibition at 1.6 µM [3]: 70% | EC50 [4]: 450 nM | EC50 [5]: 2730 nM | EC50 [6]: 2190 nM | EC50 [7]: 1200 nM

CC[C@H](C)[C@@H]1NC(=O)[C@@H]2CCCN2C(=O)[C@H](CO)NC(=O)[C@@H](NC(=O)[C@@H](NC(=O)[C@H](Cc2ccc(O)cc2)NC(=O)[C@H](CCCNC(=N)N)NC(=O)[C@H](CC(=O)O)NC(=O)CN)[C@@H](C)O)CSSC[C@@H](C(=O)N[C@@H](CC(=O)O)C(=O)N[C@@H](CC(C)C)C(=O)NCC(=O)N[C@@H](CC(=O)O)C(=O)N2CCC[C@H]2C(=O)N[C@@H](CCC(=O)O)C(=O)NCC(=O)NCC(=O)NCC(=O)N[C@@H](CCCCN)C(=O)N[C@@H](C)C(=O)N2CCC[C@H]2C(=O)N[C@@H](CCCNC(=N)N)C(=O)N[C@@H](CCCNC(=N)N)C(=O)N[C@@H](C)C(=O)N[C@@H](CCCNC(=N)N)C(=O)O)NC(=O)[C@H](CCCNC(=N)N)NC(=O)[C@H](Cc2c[nH]c3ccccc23)NC(=O)[C@H](Cc2c[nH]c3ccccc23)NC(=O)[C@@H]2CCCN2C(=O)[C@H](Cc2ccccc2)NC(=O)[C@H](CCSC)NC(=O)[C@H](CCCNC(=N)N)NC1=O (H-GDRYTCSPIRMFPWWRCDLGDPEGGGKAPRRAR-OH; disulfide 6-17)
Kd [1]: 22.5 nM | Activity [2]: Active

CSCC[C@@H](NC(=O)CNC(=O)CNC(=O)[C@@H](Cc1ccc(O)cc1)NC(=O)[C@@H](Cc1c[nH]c2ccccc12)NC(=O)CNC(=O)[C@@H](Cc1ccc(O)cc1)NC(=O)[C@@H](Cc1ccccc1)NC(=O)[C@@H](Cc1ccccc1)NC(=O)Cc1ccc2ccccc2c1)C(=O)N[C@H](CCC(=O)O)C(=O)N[C@H](CCCCN)C(=O)N[C@H](CC(C)C)C(=O)N[C@H](CC(C)C)C(=O)N[C@H](CCCNC(=N)N)C(=O)NCC(=O)NCC(=O)N[C@H](CCCNC(=N)N)C(=O)NCC(=O)N[C@H](CCC(=O)O)C(=O)N[C@H](CCCNC(=N)N)C(=O)N1CCC[C@@H]1C(=O)N1CCC[C@@H]1C(=O)N[C@H](CCCNC(=N)N)C(=O)O
Kd [8]: Not Active | Kd [1]: 106 nM

CC(C)C[C@H](NC(=O)[C@H](CC(=O)O)NC(=O)CN)C(=O)N[C@@H](Cc1cnc[nH]1)C(=O)N[C@@H](C)C(=O)N[C@H]1CSSC[C@@H](C(=O)N[C@H](C(=O)N[C@@H](CC(C)C)C(=O)NCC(=O)N[C@@H](CC(=O)O)C(=O)N2CCC[C@H]2C(=O)N[C@@H](CCC(=O)O)C(=O)NCC(=O)NCC(=O)NCC(=O)N[C@@H](CCCNC(=N)N)C(=O)N[C@@H](CO)C(=O)N2CCC[C@H]2C(=O)N[C@@H](CCCNC(=N)N)C(=O)N[C@@H](CCCNC(=N)N)C(=O)N[C@@H](C)C(=O)N[C@@H](CCCNC(=N)N)C(=O)O)[C@@H](C)O)NC(=O)[C@H](C)NC(=O)[C@H](Cc2c[nH]c3ccccc23)NC(=O)[C@H](Cc2c[nH]c3ccccc23)NC(=O)[C@@H]2CCCN2C(=O)[C@H](CC(=O)O)NC(=O)CNC(=O)[C@H](CCCNC(=N)N)NC(=O)[C@H](C(C)C)NC(=O)[C@@H]2CCCN2C(=O)[C@H](CCCNC(=N)N)NC1=O (H-GDLHACRPVRGDPWWACTLGDPEGGGRSPRRAR-OH; disulfide 6-17)
Kd [1]: 17.6 nM | Activity [2]: Active

CC[C@H](C)[C@H](NC(=O)[C@H](Cc1ccccc1)NC(=O)[C@H](CCCCN)NC(=O)[C@H](CC(=O)O)NC(=O)CN)C(=O)N[C@H]1CSSC[C@@H](C(=O)N[C@@H](CC(N)=O)C(=O)N[C@@H](Cc2c[nH]c3ccccc23)C(=O)N[C@@H](Cc2ccc(O)cc2)C(=O)N[C@@H](CC(=O)O)C(=O)N2CCC[C@H]2C(=O)N[C@@H](CCC(=O)O)C(=O)NCC(=O)NCC(=O)NCC(=O)N[C@@H](CCCCN)C(=O)NCC(=O)N[C@@H](CC(N)=O)C(=O)N[C@@H](CCCNC(=N)N)C(=O)N2CCC[C@H]2C(=O)N2CCC[C@H]2C(=O)N[C@@H](CCCNC(=N)N)C(=O)O)NC(=O)[C@H](Cc2ccccc2)NC(=O)[C@H](CCCCN)NC(=O)[C@H](Cc2c[nH]c3ccccc23)NC(=O)[C@@H]2CCCN2C(=O)[C@H](CCCCN)NC(=O)[C@H](CC(=O)O)NC(=O)[C@H](CCCNC(=N)N)NC(=O)[C@H]([C@@H](C)CC)NC(=O)[C@@H]2CCCN2C(=O)[C@H](CC(C)C)NC1=O (H-GDKFICLPIRDKPWKFCNWYDPEGGGKGNRPPR-OH; disulfide 6-17)
Kd [1]: 96.7 nM | Activity [2]: Active

CC(C)C[C@@H]1NC(=O)[C@H](C)NC(=O)[C@H](CCCNC(=N)N)NC(=O)[C@@H](NC(=O)[C@@H]2CCCN2C(=O)[C@H](CO)NC(=O)[C@H](Cc2ccc(O)cc2)NC(=O)[C@H](CC(=O)O)NC(=O)CN)CSSC[C@@H](C(=O)N2CCC[C@H]2C(=O)N[C@@H](CO)C(=O)NCC(=O)N[C@@H](CC(=O)O)C(=O)N2CCC[C@H]2C(=O)N[C@@H](CCC(=O)O)C(=O)NCC(=O)NCC(=O)NCC(=O)N[C@@H](CCCNC(=N)N)C(=O)NCC(=O)N[C@@H](CCCNC(=N)N)C(=O)N[C@@H](CCCNC(=N)N)C(=O)N2CCC[C@H]2C(=O)N2CCC[C@H]2C(=O)N[C@@H](CCCNC(=N)N)C(=O)O)NC(=O)[C@H](CCCNC(=N)N)NC(=O)[C@H](Cc2c[nH]c3ccccc23)NC(=O)[C@H](Cc2c[nH]c3ccccc23)NC(=O)[C@@H]2CCCN2C(=O)[C@H](CO)NC(=O)[C@H](Cc2cnc[nH]2)NC(=O)[C@H](CCCNC(=N)N)NC1=O (H-GDYSPCRALRHSPWWRCPSGDPEGGGRGRRPPR-OH; disulfide 6-17)
Kd [1]: 76.3 nM | Activity [2]: Active
